Results on 1 compound are retold here after US7732599B2, “Process for preparing tetrahydrobiopterin and analogs of tetrahydrobiopterin” (BioMarin Pharmaceutical Inc., priority 2003, dated 2010).

A short description of the data set: Solubility in the reaction solvent dimethylaminoacetate at room temperature. The format is physicochemical. The following applies: described as low solubility. The procedure: The conversion of the primary hydroxyl of L-Neopterin to a thioether was performed to prepare 6-((1R,2R)-1,2-dihydroxy-3-phenylthiopropyl)-2-[(methylethyl)amino]-3-hydropteridin-4-one (the compound labeled “15” in FIG. 4). To a flask containing 50 grams of 6-((2S,1R)-1,2,3-trihydroxypropyl)-2-[(1Z)-1-aza-2-(dimethylamino)vinyl]-3-hydropteridin-4-one (DMA-Neopterin, the compound labeled “6” in FIG. 2) and 400 ml of dimethylaminoacetate was added to the flask. To this stirring mixture 1 molar equivalent of diphenyl disulfide and tributylphosphine were added to the flask. […] It is believed that the thioether product is more soluble in dimethylaminoacetate. The reaction mixture was allowed to was allowed to stir for 4 hours at room temperature. Nine grams of the thioether product was isolated.

Molecules are shown by their SMILES.

On to `CN(C)C=Nc1nc2ncc([C@@H](O)[C@@H](O)CO)nc2c(=O)[nH]1` [DMA-Neopterin, 6-((2S,1R)-1,2,3-trihydroxypropyl)-2-[(1Z)-1-aza-2-(dimethylamino)vinyl]-3-hydropteridin-4-one], for which the solubility in dimethylaminoacetate result is “approximately 3.5 mg/ml”.
